Measurements: patent publication US11584727B2, “2-thioxothiazolidin-4-one derivatives active as transthyretin ligands and uses thereof” (BSIM Therapeutics, S.A., priority 2014, dated 2023)
Where two headings read alike, the source gives them in different places.

Tests used:
[1] = target: T1, wild type transthyretin (WT-TTR) (Homo sapiens, UniProt P02766); experiment: WT-TTR amyloid fibril formation assay (turbidimetry, acid-induced); type: biochemical; settings: pH 4.4, 72 hours; for Fibril Formation (%): WT-TTR 3.6 μM, 1:1 TTR-compound stoichiometry, 37° C., normalized to no-compound control (100%); for IC50: WT-TTR fixed at 3.6 μM, ten compound concentrations; for inhibitory activity against TTR amyloid fibril formation compared with reference compounds (in words): TTR 3.6 μM
T1 construct: made in house; host or cells: E. coli BL21 (DE3), pET23a plasmid
Experimental: (§1) The first set of evaluations is based on a fast, stagnant fibril formation assay that is used for the early screening of compounds, be they virtual screening hits or newly synthesized analogues. In this assay, a solution of the compound under test at 1.8, 3.6 or 7.2 μM is added to a solution of TTR at 3.6 μM, so that there is enough compound to bind to either one or both of TTR's binding sites. The pH of the resulting solution is then lowered to 4.4 to promote amyloidogenesis. The process of amyloid fibril formation over time is assessed by turbidimetry measurements at three different wavelengths (405, 450 and 490 nm, or at 550, 600 and 650 nm when the compound absorbs light at the previous wavelengths), using a spectrophotometer endowed with a BioTek microplate reader. The extent of fibril formation of each mixture is determined by normalizing a sample with the protein (TTR), in absence of compounds, which, at the end of 72 hours, represents 100% of amyloid fibril formation. In each experiment, each compound concentration is tested in triplicate. For each compound concentration and incubation time, the arithmetic mean of the triplicate experiments is calculated, as well as the arithmetic mean of the three measured wavelengths. High activity can be defined as a percentage of fibril formation below 10% at compound concentration 7.2 μM (TTR:compound stoichiometry 1:2) and below 40% at 3.6 μM (TTR:compound stoichiometry 1:1).
The in vitro activity of the compounds was assessed through a biochemical assay based on turbidimetry measurements, in which fibril formation is induced by acidification of the solution to pH 4.4 after incubation with the hit compound to be tested. The amount of amyloid fibrils formed is then monitored throughout 72 hours. Further details on this assay are provided in the “Evaluation of amyloid inhibition in vitro” subsection in “Materials and Methods”.
Experimental evaluation of the in vitro activity of virtual screening hits against amyloid fibril formation by TTR was carried out using a biochemical assay based on turbidimetry measurements. In this assay, fibril formation is induced by acidification of the solution to pH 4.4 after incubation with the hit compound to be tested. The amount of amyloid fibrils formed is monitored over 72 hours. Further details on the assay are provided in the “Evaluation of amyloid inhibition in vitro” subsection below.
(§2) Purchased virtual screening hits and all synthesized (optimization) derivatives were dissolved in DMSO to a final concentration of 10.8 mM to provide a primary stock solution. Several secondary stock solutions were prepared in DMSO by dilution of the primary stock solution and the concentrations were chosen depending on the effectiveness of the compound in inhibiting the TTR amyloid fibril formation.
(§3) The fibril formation assay was adapted to run in a high-throughput screening mode. For this purpose, 96-well microplates were used with a final assay volume of 100 μL.
(§4) One microLitre (μL) of different compound secondary stock solutions was added to 50 μL of a 7.2 μM wild type TTR (WT-TTR) or Val122Ile-TTR (V122I-TTR) solutions in 10 miliMolar (mM) sodium phosphate buffer, 100 mM KCl and 1 mM EDTA, pH 7.2, previously dialyzed against the same buffer solution. After 30 minutes of incubation at room temperature, the pH of the mixture was lowered to 4.4 with 49 μL of 200 mM acetate buffer, 100 mM KCl and 1 mM EDTA, pH 4.3.
(§5) The mixtures were incubated at 37° C. during 72 hours. Turbidity at 405 nm, 450 nm and 490 nm (or at 550, 600 and 650 nm when the test compound absorbs light at the previous wavelengths) was measured over time (0, 17, 24, 41, 48, 65 and 72 hours) using a BioTek Microplate Spectrophotometer to evaluate the extent of fibril formation. Immediately before the turbidity measurements, the mixtures were gently shacked during 1 minute to homogenize well and not damage the formed amyloid aggregates and fibrils.

[2] = target: Val122Ile transthyretin (V122I-TTR) (Homo sapiens, UniProt P02766, V142I); experiment: V122I-TTR amyloid fibril formation assay (turbidimetry, acid-induced); type: biochemical; settings: pH 4.4, 72 hours; for Fibril Formation (%): V122I-TTR 3.6 μM, 37° C.; for IC50: V122I-TTR fixed at 3.6 μM, ten compound concentrations
Experimental: as §1, §2, §3, §4
as §5, with “fibrils. The final turbidity was calculated as an average of the three wavelengths measured.” for “fibrils.”
In addition, control samples containing TTR with no inhibitor and 1% DMSO, as well as inhibitor in absence of TTR were tested and analyzed.
The extent of amyloid fibril formation data was normalized to TTR in the absence of inhibitor, assigned to be 100% fibril formation (or 0% amyloid inhibition) at the end of the experiment.
The extent of amyloid fibril formation throughout 72 hours was determined as described in the “Evaluation of amyloid inhibition in vitro” subsection above.
IC50 values were calculated from the inhibition curves obtained by fitting the values by a nonlinear curve method using the OriginPro7 (OriginLab Corporation, USA).

[3] = read-out: IC50 (μM), concentration inhibiting WT-TTR amyloid fibril formation by 50%

| Compound | Fibril Formation (%) [1] [%] | IC50 [1] [µM] | Fibril Formation (%) [2] [%] | IC50 [2] [µM] | inhibitory activity against TTR amyloid fibril formation compared with reference compounds (in words) [1] | melting point [°C] | IC50 [1, 3] [µM] | IC50 ([2]; read-out: IC50 (μM), concentration inhibiting V122I-TTR amyloid fibril formation by 50%) [µM] |
| --- | --- | --- | --- | --- | --- | --- | --- | --- |
| COc1cc(/C=C2/SC(=S)N(CC(=O)O)C2=O)cc(Cl)c1O [AT50-A00 (E), (E)-3-hydroxycarbonylmethyl-5-(3′-chloro-4′-hydroxy-5′-methoxyphenylmethylidene)-2-thioxothiazolidin-4-one] | 26 | 1.73 ± 0.06 | 45 | 3.06 |  |  |  |  |
| COc1cccc(/C=C2\SC(=S)N(C(C)C(=O)O)C2=O)c1 (centres unmarked) [AT50-B00, (Z)-3-(1′-hydroxycarbonylethyl)-5-(3′-methoxyphenylmethylidene)-2-thioxothiazolidin-4-one] | 35 | 2.38 ± 0.17 |  |  | superior to that of reference compounds Tafamidis |  |  |  |
| Cc1cc(/C=C2\SC(=S)N(CCCC(=O)O)C2=O)cc(C)c1O [AT50-C11, (Z)-5-(4′-hydroxy-3′,5′-dimethylphenylmethylidene)-3-(3′-hydroxycarbonylpropyl)-2-thioxothiazolidin-4-one] | 26 | 2.43 ± 1.25 | 66 | 4.52 |  | 250 to 252 |  |  |
| O=C(O)CC[C@@H](C(=O)O)N1C(=O)/C(=C/c2ccc(O)c(Br)c2)SC1=S [AT50-C01, (Z)-(1′S)-5-(3′-bromo-4′-hydroxyphenylmethylidene)-3-(1′,3′-di(hydroxycarbonyl)propyl)-2-thioxothiazolidin-4-one] | 13 | 1.38 ± 0.3 | 39 | 2.66 |  |  |  |  |
| COc1cc(/C=C2\SC(=S)N(CC(=O)O)C2=O)cc(C)c1O [AT50-A47, (Z)-3-hydroxycarbonylmethyl-5-(4′-hydroxy-3′-methoxy-5′-methylphenylmethylidene)-2-thioxothiazolidin-4-one] | 21 | 2.05 |  |  |  | 238 to 239 |  |  |
| (Z)-5-(3′,5′-dichloro-4′-hydroxyphenylmethylidene)-3-hydroxycarbonylmethyl-2,4-dioxothiazolidine [AT50-A49] | 4 |  | 12 |  |  |  | 0.89 ± 0.15 | 1.32 |
| O=C(O)CN1C(=O)/C(=C/c2ccc(O)cc2)SC1=S [AT50-A11, (Z)-3-hydroxycarbonylmethyl-5-(4′-hydroxyphenylmethylidene)-2-thioxothiazolidin-4-one] | 35 |  |  |  |  | 213 to 214 |  |  |
| Cc1cc(/C=C2\SC(=S)N([C@@H](CCC(=O)O)C(=O)O)C2=O)cc(Cl)c1O [AT50-C02, (Z)-(1′S)-5-(3′-chloro-4′-hydroxy-5′-methylphenylmethylidene)-3-(1′,3′-di(hydroxycarbonyl)propyl)-2-thioxothiazolidin-4-one] | 18 | 1.79 ± 0.13 |  |  |  |  |  |  |
| Oc1c(Cl)cc(-c2cc(Cl)c(O)c(Cl)c2)cc1Cl [2OH- PCB80, 2,6-dichloro-4-(3,5-dichloro-4-oxidophenyl)benzen-1-olate, reference compound] | 20 |  | 24 | 1.45 |  |  | 1.59 ± 0.27 |  |
| Cc1cc(/C=C2\SC(=S)N(CCC(=O)O)C2=O)cc(O)c1O [AT50-C20, (Z)-5-(3′,4′-dihydroxy-5′-methylphenylmethylidene)-3-(2′-hydroxycarbonylethyl)-2-thioxothiazolidin-4-one] | 39 |  |  |  |  | 221 to 222 |  |  |
| (Z)-5-(3′-bromo-4′-hydroxy-5′-iodophenylmethylidene)-3-hydroxycarbonylmethyl-2,4-dioxothiazolidine [AT50-A51] | 5 |  |  |  |  |  | 1.07 ± 0.42 |  |
| O=C(O)CN1C(=O)/C(=C/c2cc(Br)c(O)c(Br)c2)SC1=S [AT50-A50, (Z)-5-(3′,5′-dibromo-4′-hydroxyphenylmethylidene)-3-hydroxycarbonylmethyl-2-thioxothiazolidin-4-one] | 8 | 0.9 |  |  |  |  |  |  |
| COc1cc(/C=C2\SC(=S)N([C@H](CC(C)C)C(=O)O)C2=O)cc(OC)c1O [AT50-B01, (Z)-(1′S)-5-(4′-hydroxy-3′,5′-dimethoxyphenylmethylidene)-3-(1′-hydroxycarbonylisopentyl)-2-thioxothiazolidin-4-one] | 10 | 0.95 ± 0.45 | 20 | 1.48 |  |  |  |  |
| O=C(O)CCN1C(=O)/C(=C/c2cc(O)c(O)c(Cl)c2)SC1=S [AT50-C19, (Z)-5-(3′-chloro-4′,5′-dihydroxyphenylmethylidene)-3-(2′-hydroxycarbonylethyl)-2-thioxothiazolidin-4-one] | 33 |  |  |  |  | 243 to 245 |  |  |
| COc1cc(/C=C2\SC(=S)N(CCC(=O)O)C2=O)cc(C)c1O [AT50-C18, (Z)-5-(4′-hydroxy-3′-methoxy-5′-methylphenylmethylidene)-3-(2′-hydroxycarbonylethyl)-2-thioxothiazolidin-4-one] | 30 |  |  |  |  | 194 to 196 |  |  |
| Cc1cc(/C=C2\SC(=S)N(CC(=O)O)C2=O)cc(O)c1O [AT50-A35, (Z)-5-(3′,4′-dihydroxy-5′-methylphenylmethylidene)-3-hydroxycarbonylmethyl-2-thioxothiazolidin-4-one] | 21 | 2.23 |  |  |  | 238 to 239 |  |  |
| O=C(O)CC[C@@H](C(=O)O)N1C(=O)/C(=C/c2c(Cl)cccc2Cl)SC1=S [AT50-C00, (Z)-(1′S)-5-(2′,6′-dichlorophenylmethylidene)-3-(1′,3′-di(hydroxycarbonyl)propyl)-2-thioxothiazolidin-4-one] | 26 | 2.05 ± 0.04 |  |  | superior to that of reference compounds Tafamidis |  |  |  |
| NC(Cc1cc(I)c(Oc2cc(I)c(O)c(I)c2)c(I)c1)C(=O)O (stereo in doubt) [Thyroxine, (2S)-2-amino-3-[4-(4-hydroxy-3,5-diiodophenoxy)-3,5-diiodophenyl]propanoic acid, reference compound] | 28 |  | 42 |  |  |  |  |  |
